Like-named read-outs stand apart in the source and are kept apart here. Residues, ends and D or L forms follow the SMILES beside them.

Assay [1] addresses T1, PLCG1-NC tandem SH2 domains (Homo sapiens, UniProt P19174).
T1 construct: the tandem protein was included in our analysis with all internal amino acids linking the domains; 6X His; thioredoxin; made in house; host or cells: E. coli BL21(DE3)pLysS
T1 sequence (P19174 550-756 limits assumed): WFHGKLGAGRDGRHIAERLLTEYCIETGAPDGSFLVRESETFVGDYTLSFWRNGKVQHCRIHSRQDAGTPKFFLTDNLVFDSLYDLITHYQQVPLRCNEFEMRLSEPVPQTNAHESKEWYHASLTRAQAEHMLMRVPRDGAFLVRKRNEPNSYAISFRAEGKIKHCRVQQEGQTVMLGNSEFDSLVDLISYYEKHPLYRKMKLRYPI
In words: FP saturation binding assay. Particulars: Protein PLCG1-NC; FP saturation binding, high-confidence ErbB interactions; mean over replicate hits.

For the next assay, the target named is T2, GRAP2 SH2 domain (Homo sapiens, UniProt O75791).
T2 sequence (O75791 58-149 limits assumed): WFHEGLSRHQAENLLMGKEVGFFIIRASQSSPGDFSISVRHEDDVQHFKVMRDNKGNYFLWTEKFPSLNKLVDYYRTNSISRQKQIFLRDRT
In words: FP saturation binding assay. Particulars: for share of the ErbB1 binding FE for GRAP2: free energy from FP KDs as percentage of total receptor recruitment (Figure S16).

Another assay addresses T3, HSH2D SH2 domain (Homo sapiens, UniProt Q96JZ2).
T3 sequence (Q96JZ2 34-125 limits assumed): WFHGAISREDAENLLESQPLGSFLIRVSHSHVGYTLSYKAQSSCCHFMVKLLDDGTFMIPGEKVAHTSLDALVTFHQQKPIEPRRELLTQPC
Put plainly: FP saturation binding assay.

A further assay has as its target T4, SH2D1A SH2 domain (Homo sapiens, UniProt O60880).
T4 sequence (O60880 6-104 limits assumed): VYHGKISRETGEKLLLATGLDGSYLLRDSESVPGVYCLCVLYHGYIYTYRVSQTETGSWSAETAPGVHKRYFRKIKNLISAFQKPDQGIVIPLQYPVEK
In words: FP saturation binding assay.

The target of the next assay is GRB2 SH2 domain (Homo sapiens, UniProt P62993). In words: FP saturation binding assay. Particulars: for share of the ErbB1 binding FE for GRB2: free energy from FP KDs as percentage of total receptor recruitment (Figure S16).
The target of the next assay is T5, PIK3R3-C SH2 domain (Homo sapiens, UniProt Q92569).
T5 construct: thioredoxin; made in house; host or cells: E. coli BL21(DE3)pLysS
Put plainly: biochemical. Particulars: protein PIK3R3-C; high-confidence ErbB interactions; mean of replicate hits. In kind it is binding.

The next assay deals with T6, LCK SH2 domain (Homo sapiens, UniProt P06239).
T6 construct: 93 SH2 and 2 PTB domain-containing constructs; 6X His; thioredoxin; made in house; host or cells: E. coli BL21(DE3)pLysS
Put plainly: FP saturation binding assay. Particulars: protein LCK; high-confidence ErbB interactions; mean of replicate hits. Put shortly:
(§1)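 Rhodamine-labeled peptides (10 nM final) were titrated with 12 SH2 domain concentrations (0.002–10 µM) in 20 mM HEPES, 100 mM KCl, 0.1% Tween-20, 5 mM DTT, pH 7.8. After 20 min at room temperature in the dark, FP (ex 530/em 555 nm) was read. KDs came from nonlinear least-squares fits.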

Another assay concerns the target T7, PTK6 SH2 domain (Homo sapiens, UniProt Q13882).
T7 construct: from the PTK6 SH2 domain; 6X His; thioredoxin; made in house; host or cells: E. coli BL21(DE3)pLysS
In words: FP saturation binding assay. Particulars: protein PTK6; high-confidence ErbB interactions; mean of replicate hits. In a few lines:
as §1

A further assay deals with T8, RASA1-N SH2 domain (Homo sapiens, UniProt P20936).
T8 sequence (P20936 181-272 limits assumed): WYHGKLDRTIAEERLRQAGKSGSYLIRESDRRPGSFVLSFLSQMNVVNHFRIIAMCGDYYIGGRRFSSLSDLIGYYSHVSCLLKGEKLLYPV
Put plainly: FP saturation binding assay.

Another assay deals with SH2 and PTB domains. Particulars: ref Jones et al. 2006 / Kaushansky et al. Mol Biosys 2008 / Kaushansky et al. Chem and Biol 2008, cited from earlier work. From the text:
Supplement pone.0044471.s022.xlsx, sheet "Most recent PM interactions" | column: Kd || Supplement pone.0044471.s022.xlsx, sheet "All original PM interactions" | column: Kd

Chain of GRB2 SH2 domain (P62993 60-152 limits assumed): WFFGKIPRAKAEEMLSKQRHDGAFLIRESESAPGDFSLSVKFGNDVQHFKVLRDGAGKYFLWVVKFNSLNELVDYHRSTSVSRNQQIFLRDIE
T7 sequence (Q13882 78-170 limits assumed): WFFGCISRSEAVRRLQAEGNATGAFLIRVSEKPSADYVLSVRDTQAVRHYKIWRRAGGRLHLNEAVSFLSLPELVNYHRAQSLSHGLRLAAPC
T6 sequence (P06239 127-224 limits assumed): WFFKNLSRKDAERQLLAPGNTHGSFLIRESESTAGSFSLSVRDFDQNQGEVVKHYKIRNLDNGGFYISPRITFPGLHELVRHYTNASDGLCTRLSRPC

`CC(C)C[C@H](NC(=O)[C@H](Cc1ccc(OP(=O)(O)O)cc1)NC(=O)[C@H](CCC(=O)O)NC(=O)[C@@H]1CCCN1C(=O)[C@H](CC(N)=O)NC(=O)CN)C(=O)N[C@@H](CC(N)=O)C(=O)N[C@H](C(=O)N[C@H](C(=O)N[C@@H](CCC(N)=O)C(=O)N1CCC[C@H]1C(=O)N[C@H](C(=O)N[C@@H](CC(=O)O)C(=O)O)[C@@H](C)O)C(C)C)[C@@H](C)O` [ErbB1 1138 13-mer] (HELM PEPTIDE1{G.N.P.E.[O=C([C@H](Cc1ccc(OP(=O)(O)O)cc1)N[*:1])[*:2]].L.N.T.V.Q.P.T.D}$$$$V2.0): the Kd in assay [1] was determined as 5.35 µM; at GRAP2 SH2 domain, 4.82 µM; at HSH2D SH2 domain, 3.41 µM; at SH2D1A SH2 domain, 9.44 µM.
Take `CC(C)C[C@H](NC(=O)[C@@H]1CCCN1)C(=O)N[C@H](C(=O)N[C@@H](CS)C(=O)N[C@@H](CO)C(=O)N1CCC[C@H]1C(=O)N[C@@H](CCC(N)=O)C(=O)N1CCC[C@H]1C(=O)N[C@@H](CCC(=O)O)C(=O)N[C@@H](Cc1ccc(OP(=O)(O)O)cc1)C(=O)N[C@H](C(=O)N[C@@H](CC(N)=O)C(=O)N[C@@H](CCC(N)=O)C(=O)N1CCC[C@H]1C(=O)N[C@@H](CC(=O)O)C(=O)N[C@H](C(=O)N[C@@H](CCCNC(=N)N)C(=O)N[C@@H](CC(=O)O)C(=O)O)C(C)C)C(C)C)[C@@H](C)O` [ErbB2 1139 18-mer] (HELM PEPTIDE1{P.L.T.C.S.P.Q.P.E.[O=C([C@H](Cc1ccc(OP(=O)(O)O)cc1)N[*:1])[*:2]].V.N.Q.P.D.V.R.D}$$$$V2.0): the results for the Kd on GRAP2 SH2 domain, on GRB2 SH2 domain and at HSH2D SH2 domain were 0.56 µM, 1.38 µM and 2.82 µM, respectively.
For `CC(C)C[C@H](NC(=O)[C@H](CO)NC(=O)[C@H](Cc1c[nH]cn1)NC(=O)[C@H](CC(N)=O)NC(=O)[C@H](Cc1c[nH]c2ccccc12)NC(=O)[C@H](Cc1ccc(OP(=O)(O)O)cc1)NC(=O)[C@H](CC(=O)O)NC(=O)[C@@H]1CCCN1C(=O)[C@H](CC(N)=O)NC(=O)[C@@H](N)CC(=O)O)C(=O)N1CCC[C@H]1C(=O)N1CCC[C@H]1C(=O)N[C@@H](CC(=O)O)C(=O)O` [ErbB4 1242 13-mer] (HELM PEPTIDE1{D.N.P.D.[O=C([C@H](Cc1ccc(OP(=O)(O)O)cc1)N[*:1])[*:2]].W.N.H.S.L.P.P.D}$$$$V2.0), the Kd was 8.29 µM at PIK3R3-C SH2 domain; 4.46 µM at LCK SH2 domain; 2.76 µM on PTK6 SH2 domain; 7.37 µM on HSH2D SH2 domain; 5.03 µM on RASA1-N SH2 domain.
As for GNPEpYLNTVQPTd [ErbB1 pY1138], the Kd at SH2 and PTB domains (protein ABL2) is 0.085 µM; on SH2 and PTB domains (protein GRB2), 0.72 µM; on SH2 and PTB domains (protein ITK), 1.76 µM; at SH2 and PTB domains (protein NCK2), 0.33 µM; on SH2 and PTB domains (protein PIK3R1-NC), 1.57 µM; at SH2 and PTB domains (protein PIK3R2-N) it was 0.76 µM. In addition, the Kd at SH2 and PTB domains (protein PIK3R2-NC) is 0.86 µM; on SH2 and PTB domains (protein PIK3R3-N), 0.84 µM; on SH2 and PTB domains (protein PIK3R3-NC), 1.69 µM; on SH2 and PTB domains (protein RASA1-N) it was 0.39 µM; on SH2 and PTB domains (protein SHC1-PTB) it was 0.13 µM; at SH2 and PTB domains (protein VAV2), 0.37 µM. Also, the Kd at SH2 and PTB domains (protein ZAP70-NC) was 1.14 µM. Also, the “share of the ErbB1 binding FE for GRAP2” value on GRAP2 SH2 domain is recorded as 50%. The “share of the ErbB1 binding FE for GRB2” value at GRB2 SH2 domain is 50%.
In the case of PVPEpYINQSVPKd [ErbB1 pY1092], the Kd on SH2 and PTB domains (protein ABL1) is 0.92 µM; at SH2 and PTB domains (protein ABL2) it was 0.15 µM; at SH2 and PTB domains (protein BLK), 0.3 µM; at SH2 and PTB domains (protein GRB2), 0.2 µM; at SH2 and PTB domains (protein GRB10) it was 1.3 µM; at SH2 and PTB domains (protein ITK) it was 0.22 µM. The Kd at SH2 and PTB domains (protein NCK2) was 1.1 µM; on SH2 and PTB domains (protein PIK3R1-N), 1.08 µM; at SH2 and PTB domains (protein PIK3R1-NC) it was 0.67 µM; on SH2 and PTB domains (protein PIK3R2-N) it was 0.45 µM; at SH2 and PTB domains (protein PIK3R2-NC) it was 1.41 µM; on SH2 and PTB domains (protein PIK3R3-N), 0.51 µM. Besides, the Kd on SH2 and PTB domains (protein PIK3R3-NC) was 1.02 µM; at SH2 and PTB domains (protein PLCG2-NC), 1.63 µM; on SH2 and PTB domains (protein RASA1-N), 0.18 µM; on SH2 and PTB domains (protein SRC), 1.79 µM; at SH2 and PTB domains (protein SYK-C) it was 1.92 µM; on SH2 and PTB domains (protein SYK-NC), 0.91 µM. Further, the Kd is 0.54 µM at SH2 and PTB domains (protein VAV2); 0.34 µM at SH2 and PTB domains (protein YES1). At GRAP2 SH2 domain, the “share of the ErbB1 binding FE for GRAP2” value came to 50%. The “share of the ErbB1 binding FE for GRB2” value at GRB2 SH2 domain came to 50%.

The record behind these values is paper PMC3433420 (PLoS ONE, 2012).
